SMILES strings stand for the structures.

The target in this assay is T1, human IL-17AA (Homo sapiens, UniProt Q16552).
T1 construct: host or cells: HEK (human embryonic kidney) cells
T1 sequence (Q16552 24-155) 1: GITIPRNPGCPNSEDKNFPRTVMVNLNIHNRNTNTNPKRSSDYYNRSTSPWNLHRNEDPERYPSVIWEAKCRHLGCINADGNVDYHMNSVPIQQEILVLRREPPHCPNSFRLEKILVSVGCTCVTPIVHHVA
T1 sequence (Q16552 24-155) 2: T1 sequence (Q16552 24-155) 1
Put plainly: IL-8 release assay in human epithelial keratinocytes adult (HEKa). It is filed as cell-based. The following applies: 3 ng/ml human IL-17AA + 10 ng/ml human TNFalpha, 68-72 h, IL-8 by HTRF, read-out: Rel EC50 L-8 release assay. In outline: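 IL-8 secretion, quantified by HTRF (665/620 nm) as percent of controls, served as the readout after 68–72 h culture of HEKa cells with compound plus IL-17AA (3 ng/ml final) and TNF-alpha (10 ng/ml final). Four-parameter logistic curves gave relative IC50 and Emax.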
Consider `CC(C)n1cc(-c2ccc3c(c2)[C@H]([C@H](NC(=O)OC2CC2)C(=O)Nc2ccc(-c4cncn4C)c(O)c2)CCC3)ccc1=O` [Example 31, cyclopropyl N-[(1S)-2-[3-hydroxy-4-(3-methylimidazol-4-yl)anilino]-1-[(1R)-7-(1-isopropyl-6-oxo-3-pyridyl)tetralin-1-yl]-2-oxo-ethyl]carbamate], for which the EC50 was < 100 nM. With `Cc1ncn(C)c1-c1ccc(NC(=O)[C@@H](NC(=O)OC2CC2)[C@@H]2CCCc3ccc(-c4ccnc(N5CCN(C)CC5)c4)cc32)cc1` [Example 32, cyclopropyl N-[(1S)-2-[4-(3,5-dimethylimidazol-4-yl)anilino]-1-[(1R)-7-[2-(4-methylpiperazin-1-yl)-4-pyridyl]tetralin-1-yl]-2-oxo-ethyl]carbamate] the figure was 100 to 1000 nM; with `Cc1n[nH]c(C)c1-c1ccc(NC(=O)[C@@H](NC(=O)c2ccnn2C)[C@@H]2CCCc3ccc(-c4ccc(=O)n(C(C)C)c4)cc32)cc1O` [Example 33, N-[(1S)-2-[4-(3,5-dimethyl-1H-pyrazol-4-yl)-3-hydroxy-anilino]-1-[(1R)-7-(1-isopropyl-6-oxo-3-pyridyl)tetralin-1-yl]-2-oxo-ethyl]-2-methyl-pyrazole-3-carboxamide], < 100 nM. As for `Cc1n[nH]c(C)c1-c1ccc(NC(=O)[C@@H](NC(=O)c2ccnn2C)[C@@H]2CCCc3ccc(-c4cnn(C(C)(C)C)c4)cc32)cc1` [Example 34, N-[(1S)-1-[(1R)-7-(1-tert-butylpyrazol-4-yl)tetralin-1-yl]-2-[4-(3,5-dimethyl-1H-pyrazol-4-yl)anilino]-2-oxo-ethyl]-2-methyl-pyrazole-3-carboxamide], the figure is < 100 nM; as for `Cc1n[nH]c(C)c1-c1ccc(NC(=O)[C@@H](NC(=O)c2ccnn2C)[C@@H]2CCCc3ccc(-c4ccc5c(c4)CNC5)cc32)cc1` [Example 35, N-[(1S)-2-[4-(3,5-dimethyl-1H-pyrazol-4-yl)anilino]-1-[(1R)-7-isoindolin-5-yltetralin-1-yl]-2-oxo-ethyl]-2-methyl-pyrazole-3-carboxamide], < 100 nM. Take `Cc1n[nH]c(C)c1-c1ccc(NC(=O)[C@@H](NC(=O)c2ccnn2C)[C@@H]2CCCc3ccc(-c4ccc5c(c4)CCN(C)C5)cc32)cc1` [Example 36, N-[(1S)-2-[4-(3,5-dimethyl-1H-pyrazol-4-yl)anilino]-1-[(1R)-7-(2-methyl-3,4-dihydro-1H-isoquinolin-6-yl)tetralin-1-yl]-2-oxo-ethyl]-2-methyl-pyrazole-3-carboxamide]: the EC50 was < 100 nM.

In the case of `Cc1n[nH]c(C)c1-c1ccc(NC(=O)[C@@H](NC(=O)c2ccnn2C)[C@@H]2CCCc3ccc(-c4ccc5c(c4)CN(C)C5)cc32)cc1` [Example 37, N-[(1S)-2-[4-(3,5-dimethyl-1H-pyrazol-4-yl)anilino]-1-[(1R)-7-(2-methylisoindolin-5-yl)tetralin-1-yl]-2-oxo-ethyl]-2-methyl-pyrazole-3-carboxamide], the EC50 is < 100 nM. As for `Cc1n[nH]c(C)c1-c1ccc(NC(=O)[C@@H](NC(=O)c2ccnn2C)[C@@H]2CCCc3ccc(-c4ccc5c(c4)CCNC5)cc32)cc1` [Example 38, N-[(1S)-2-[4-(3,5-dimethyl-1H-pyrazol-4-yl)anilino]-2-oxo-1-[(1R)-7-(1,2,3,4-tetrahydroisoquinolin-6-yl)tetralin-1-yl]ethyl]-2-methyl-pyrazole-3-carboxamide], the figure is < 100 nM. With `Cc1n[nH]c(C)c1-c1ccc(NC(=O)[C@@H](NC(=O)C2(F)CC2)[C@@H]2CCCc3ccc(-c4ccnc(N5CCNCC5)c4)cc32)cc1` [Example 39, N-[(1S)-2-[4-(3,5-dimethyl-1H-pyrazol-4-yl)anilino]-2-oxo-1-[(1R)-7-(2-piperazin-1-yl-4-pyridyl)tetralin-1-yl]ethyl]-1-fluoro-cyclopropanecarboxamide] the figure was < 100 nM. For the compound `Cc1ncn(C)c1-c1ccc(NC(=O)[C@@H](NC(=O)C2(F)CC2)[C@@H]2CCCc3ccc(-c4ccnc(N5C[C@@H]6C[C@H]5CN6)c4)cc32)cc1` [Example 40, N-[(1S)-1-[(1R)-7-[2-[(1S,4S)-2,5-diazabicyclo[2.2.1]heptan-2-yl]-4-pyridyl]tetralin-1-yl]-2-[4-(3,5-dimethylimidazol-4-yl)anilino]-2-oxo-ethyl]-1-fluoro-cyclopropanecarboxamide], the EC50 was < 100 nM.

On to `Cc1ncn(C)c1-c1ccc(NC(=O)[C@@H](NC(=O)c2ccnn2C)[C@@H]2CCCc3ccc(-c4ccc5c(c4)CNC5)cc32)cc1` [Example 42, N-[(1S)-2-[4-(3,5-dimethylimidazol-4-yl)anilino]-1-[(1R)-7-isoindolin-5-yltetralin-1-yl]-2-oxo-ethyl]-2-methyl-pyrazole-3-carboxamide], for which the concentration for a half-maximal effect (EC50) was 100 to 1000 nM. With `Cc1ncn(C)c1-c1ccc(NC(=O)[C@@H](NC(=O)C2(F)CC2)[C@@H]2CCCc3ccc(-c4ccc5c(c4)CNC5)cc32)cc1` [Example 43, N-[(1S)-2-[4-(3,5-dimethylimidazol-4-yl)anilino]-1-[(1R)-7-isoindolin-5-yltetralin-1-yl]-2-oxo-ethyl]-1-fluoro-cyclopropanecarboxamide] the figure was 100 to 1000 nM. Regarding `CC(C)n1cc(-c2ccc3c(c2)[C@H]([C@H](NC(=O)c2ccnn2C)C(=O)Nc2ccc(-c4cncn4C)cc2)CCC3)ccc1=O` [Example 44, N-[(1S)-1-[(1R)-7-(1-isopropyl-6-oxo-3-pyridyl)tetralin-1-yl]-2-[4-(3-methylimidazol-4-yl)anilino]-2-oxo-ethyl]-2-methyl-pyrazole-3-carboxamide], the EC50 is 100 to 1000 nM. Take `CC(C)n1cc(-c2ccc3c(c2)[C@@H]([C@@H](NC(=O)OC(C)(C)C)C(=O)Nc2ccc(-c4cncn4C)cc2)CCC3)ccc1=O` [Example 45, tert-butyl N-[(1R)-1-[(1S)-7-(1-isopropyl-6-oxo-3-pyridyl)tetralin-1-yl]-2-[4-(3-methylimidazol-4-yl)anilino]-2-oxo-ethyl]carbamate]: the half-maximal effective concentration (EC50) was 100 to 1000 nM. As for `Cc1n[nH]c(C)c1-c1ccc(NC(=O)[C@@H](NC(=O)c2ccnn2C)[C@@H]2CCCc3ccc(-c4ccc(=O)n(C(C)C)c4)cc32)cc1O` [Example 46, N-[(1S)-2-[4-(3,5-dimethyl-1H-pyrazol-4-yl)-3-hydroxy-anilino]-1-[(1R)-7-(1-isopropyl-6-oxo-3-pyridyl)tetralin-1-yl]-2-oxo-ethyl]-2-methyl-pyrazole-3-carboxamide], the figure is < 100 nM; as for `Cc1n[nH]c(C)c1-c1ccc(NC(=O)[C@@H](NC(=O)C2(F)CC2)[C@@H]2CCCc3ccc(-c4ccc(=O)n(C(C)C)c4)cc32)cc1O` [Example 47, N-[(1S)-2-[4-(3,5-dimethyl-1H-pyrazol-4-yl)-3-hydroxy-anilino]-1-[(1R)-7-(1-isopropyl-6-oxo-3-pyridyl)tetralin-1-yl]-2-oxo-ethyl]-1-fluoro-cyclopropanecarboxamide], < 100 nM. With `CC(C)n1cc(-c2ccc3c(c2)[C@@H]([C@@H](NC(=O)c2ccnn2C)C(=O)Nc2ccc(-c4cncn4C)cc2)CCC3)ccc1=O` [Example 48, N-[(1R)-1-[(1S)-7-(1-isopropyl-6-oxo-3-pyridyl)tetralin-1-yl]-2-[4-(3-methylimidazol-4-yl)anilino]-2-oxo-ethyl]-2-methyl-pyrazole-3-carboxamide] the figure was > 1000 nM. With `CC(C)n1cc(-c2ccc3c(c2)[C@H]([C@H](NC(=O)c2ccnn2C)C(=O)Nc2ccc(-c4cncn4C)c(O)c2)CCC3)ccc1=O` [Example 49, N-[(1S)-2-[3-hydroxy-4-(3-methylimidazol-4-yl)anilino]-1-[(1R)-7-(1-isopropyl-6-oxo-3-pyridyl)tetralin-1-yl]-2-oxo-ethyl]-2-methyl-pyrazole-3-carboxamide] the figure was < 100 nM; with `Cc1ncn(C)c1-c1ccc(NC(=O)[C@@H](NC(=O)c2ccnn2C)[C@@H]2CCCc3ccc(-c4cccc(C(C)(C)N)c4)cc32)cc1` [Example 50, N-[(1S)-1-[(1R)-7-[3-(1-amino-1-methyl-ethyl)phenyl]tetralin-1-yl]-2-[4-(3,5-dimethylimidazol-4-yl)anilino]-2-oxo-ethyl]-2-methyl-pyrazole-3-carboxamide], 100 to 1000 nM; with `Cc1n[nH]c(C)c1-c1ccc(NC(=O)[C@@H](NC(=O)C2(F)CC2)C(C)c2cc(-c3ccc(=O)n(C(C)C)c3)ccc2Cl)cc1` (stereo partly drawn) [Example 51, N-[(1S)-2-[2-chloro-5-(1-isopropyl-6-oxo-3-pyridyl)phenyl]-1-[[4-(3,5-dimethyl-1H-pyrazol-4-yl)phenyl]carbamoyl]propyl]-1-fluoro-cyclopropanecarboxamide], 100 to 1000 nM. As for `Cc1ncn(C)c1-c1ccc(NC(=O)[C@@H](NC(=O)C2(F)CC2)C(C)c2cc(-c3ccc(=O)n(C(C)C)c3)ccc2Cl)cc1` (stereo partly drawn) [Example 52, N-[(1S)-2-[2-chloro-5-(1-isopropyl-6-oxo-3-pyridyl)phenyl]-1-[[4-(3,5-dimethylimidazol-4-yl)phenyl]carbamoyl]propyl]-1-fluoro-cyclopropanecarboxamide], the EC50 was > 1000 nM.

As for `CC(c1cc(-c2ccc(=O)n(C(C)C)c2)ccc1Cl)[C@H](NC(=O)OC1CC1)C(=O)Nc1ccc(-c2cncn2C)cc1` (stereo partly drawn) [Example 53, cyclopropyl N-[(1S)-2-[2-chloro-5-(1-isopropyl-6-oxo-3-pyridyl)phenyl]-1-[[4-(3-methylimidazol-4-yl)phenyl]carbamoyl]propyl] carbamate], the EC50 fell in the range of 100 to 1000 nM.

Turning to `CC(c1cc(-c2ccc(=O)n(C(C)C)c2)ccc1Cl)C(NC(=O)c1ccnn1C)C(=O)Nc1ccc(-c2cncn2C)cc1` (centres unmarked) [Example 55, N-[2-[2-chloro-5-(1-isopropyl-6-oxo-3-pyridyl)phenyl]-1-[[4-(3-methylimidazol-4-yl)phenyl]carbamoyl]propyl]-2-methyl-pyrazole-3-carboxamide], the EC50 was > 1000 nM.

For the origin of these results see US20220162191A1, “SMALL MOLECULE MODULATORS OF IL-17” (LEO PHARMA A/S, priority 2019, published 2022).
